One series has as its target T1, Cytochrome P450 1B1 (Homo sapiens, UniProt Q16678).
T1 sequence (Q16678 whole entry): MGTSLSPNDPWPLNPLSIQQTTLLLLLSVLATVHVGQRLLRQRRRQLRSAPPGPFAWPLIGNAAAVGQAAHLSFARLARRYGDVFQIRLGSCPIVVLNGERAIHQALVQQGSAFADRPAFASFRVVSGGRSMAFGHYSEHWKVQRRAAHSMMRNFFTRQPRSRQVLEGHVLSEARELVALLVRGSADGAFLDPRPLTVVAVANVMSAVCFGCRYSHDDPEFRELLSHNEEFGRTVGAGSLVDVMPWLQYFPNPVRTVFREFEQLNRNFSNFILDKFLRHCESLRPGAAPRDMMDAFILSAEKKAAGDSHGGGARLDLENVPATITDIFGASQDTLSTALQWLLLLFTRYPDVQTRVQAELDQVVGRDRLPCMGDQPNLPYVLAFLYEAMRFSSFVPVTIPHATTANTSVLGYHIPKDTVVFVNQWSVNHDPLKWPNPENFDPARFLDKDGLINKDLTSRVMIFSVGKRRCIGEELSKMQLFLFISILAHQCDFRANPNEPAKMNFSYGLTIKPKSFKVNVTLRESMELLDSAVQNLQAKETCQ
The series can be described thus: Inhibition of human CYP1B1 transfected in HEK293 cells assessed as reduction in cisplatin EC50 at 20 uM by MTT assay. Format: cell-based. The conditions noted are these: hek293, 20 µM. On the technique in general: Tetrazolium dyes change colour on reduction, which living cells bring about.

Series [1] concerns the target T2, Cytochrome P450 1A1 (Homo sapiens, UniProt P04798).
T2 sequence (P04798 whole entry): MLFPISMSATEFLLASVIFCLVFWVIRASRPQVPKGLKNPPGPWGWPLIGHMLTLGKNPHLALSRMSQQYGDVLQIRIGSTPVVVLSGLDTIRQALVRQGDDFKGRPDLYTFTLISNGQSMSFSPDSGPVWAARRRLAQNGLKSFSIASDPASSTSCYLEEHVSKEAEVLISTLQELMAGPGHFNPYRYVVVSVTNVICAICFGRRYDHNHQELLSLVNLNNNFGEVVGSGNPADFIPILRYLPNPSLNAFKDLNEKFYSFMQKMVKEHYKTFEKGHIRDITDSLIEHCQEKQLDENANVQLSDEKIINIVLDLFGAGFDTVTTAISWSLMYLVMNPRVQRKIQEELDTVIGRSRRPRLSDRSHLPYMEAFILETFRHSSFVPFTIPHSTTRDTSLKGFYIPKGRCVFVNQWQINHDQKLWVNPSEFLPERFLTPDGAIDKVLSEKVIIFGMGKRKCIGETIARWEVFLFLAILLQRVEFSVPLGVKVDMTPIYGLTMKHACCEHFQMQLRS
The series can be described thus: Inhibition of human CYP1A1 transfected in HEK293 cells assessed as protection against CYP1A1 mediated B[a]P toxicity at 20 uM by MTT assay. Format: cell-based. The following applies: hek293, 20 µM.

A short description of series [2]: Selectivity ratio of IC50 for human CYP2C9 expressed in HEK293 cells to IC50 for human CYP1A1 expressed in HEK293 cells.
Series [3] is described as follows: Selectivity ratio of IC50 for human CYP3A4 expressed in HEK293 cells to IC50 for human CYP1A1 expressed in HEK293 cells.
The nature of series [4]: Selectivity ratio of IC50 for human CYP2C9 expressed in HEK293 cells to IC50 for human CYP1A2 expressed in HEK293 cells.
The species named for series [5] is Homo sapiens. The series can be described thus: Selectivity ratio of IC50 for human CYP3A4 bound to yeast microsomal membrane to IC50 for human CYP1A2 bound to yeast microsomal membrane.
Series [6] is filed under the species Homo sapiens. The series can be described thus: Selectivity ratio of IC50 for human CYP2C9 bound to yeast microsomal membrane to IC50 for human CYP1B1 bound to yeast microsomal membrane.
For series [7], the species on record is Homo sapiens. As to the kind of experiment: Selectivity ratio of IC50 for human CYP2C19 bound to yeast microsomal membrane to IC50 for human CYP1A1 bound to yeast microsomal membrane.
Series [8] is described as follows: Selectivity ratio of IC50 for human CYP2C19 expressed in HEK293 cells to IC50 for human CYP1A2 expressed in HEK293 cells.
The species named for series [9] is Homo sapiens. The series can be described thus: Selectivity ratio of IC50 for human CYP3A4 bound to yeast microsomal membrane to IC50 for human CYP1A1 bound to yeast microsomal membrane.
Series [10] in a line: Selectivity ratio of IC50 for human CYP3A4 expressed in HEK293 cells to IC50 for human CYP1B1 expressed in HEK293 cells.
The species entered for series [11] is Homo sapiens. As to the kind of experiment: Selectivity ratio of IC50 for human CYP2C19 bound to yeast microsomal membrane to IC50 for human CYP1B1 bound to yeast microsomal membrane.
Series [12] is described as follows: Selectivity ratio of IC50 for human CYP2D6 expressed in HEK293 cells to IC50 for human CYP1B1 expressed in HEK293 cells.
For series [13], the species on record is Homo sapiens. As to the kind of experiment: Selectivity ratio of IC50 for human CYP2C9 bound to yeast microsomal membrane to IC50 for human CYP1A2 bound to yeast microsomal membrane.
The nature of series [14]: Selectivity ratio of IC50 for human CYP2C19 expressed in HEK293 cells to IC50 for human CYP1B1 expressed in HEK293 cells.
Series [15] is filed under the species Homo sapiens. The series can be described thus: Selectivity ratio of IC50 for human CYP2D6 bound to yeast microsomal membrane to IC50 for human CYP1A1 bound to yeast microsomal membrane.
Series [16] is filed under the species Homo sapiens. As to the kind of experiment: Selectivity ratio of IC50 for human CYP2C9 bound to yeast microsomal membrane to IC50 for human CYP1A1 bound to yeast microsomal membrane.
Series [17] is filed under the species Homo sapiens. The series can be described thus: Selectivity ratio of IC50 for human CYP2C19 bound to yeast microsomal membrane to IC50 for human CYP1A2 bound to yeast microsomal membrane.
Series [18] is described as follows: Selectivity ratio of IC50 for human CYP2C9 expressed in HEK293 cells to IC50 for human CYP1B1 expressed in HEK293 cells.
For series [19], the species on record is Homo sapiens. The series can be described thus: Selectivity ratio of IC50 for human CYP2D6 bound to yeast microsomal membrane to IC50 for human CYP1A2 bound to yeast microsomal membrane.
Series [20] has as its target T2, Cytochrome P450 1A1. As to the kind of experiment: Inhibition of human CYP1A1 transfected in HEK293 cells assessed as protection from CYP1A1 mediated B[a]P toxicity at 8 times IC50 by MTT assay. The format is cell-based.

Each structure is given as a SMILES string.

`O=C(/C=C/c1ccc(OC(F)(F)F)cc1)c1ccc[nH]1`: the “inhibition (INH)” value at Cytochrome P450 1B1 and on Cytochrome P450 1A1 [1] was “Not Active” throughout.

With `COc1ccccc1/C=C/C(=O)c1ccc[nH]1`, the “Ratio IC50” value (in [2]; in series [3]; in [4]; in the series filed under Homo sapiens [5]; in the series filed under Homo sapiens [6]; in the series filed under Homo sapiens [7]) was over 20 throughout. In addition, the “Ratio IC50” value (in series [8]; in the series filed under Homo sapiens [9]; in series [10]; in the series listed under Homo sapiens [11]; in [12]; in the series listed under Homo sapiens [13]) was over 20 throughout. Further, the “Ratio IC50” value (in [14]; in the series filed under Homo sapiens [15]; in the series filed under Homo sapiens [16]; in the series listed under Homo sapiens [17]; in series [18]; in the series filed under Homo sapiens [19]) was over 20 in each case. At Cytochrome P450 1A1 [20], the “inhibition (INH)” value was “Active”.

With `O=C(/C=C/c1ccccc1Cl)c1ccc[nH]1`, the “Ratio IC50” value (in [2]; in series [3]; in [4]; in the series listed under Homo sapiens [5]; in the series listed under Homo sapiens [6]; in the series listed under Homo sapiens [7]) was over 20 throughout. For the same compound, the “Ratio IC50” value (in series [8]; in the series listed under Homo sapiens [9]; in series [10]; in the series filed under Homo sapiens [11]; in [12]; in the series listed under Homo sapiens [13]) was over 20 throughout. Further, the “Ratio IC50” value (in series [14]; in the series listed under Homo sapiens [15]; in the series listed under Homo sapiens [16]; in the series filed under Homo sapiens [17]; in series [18]; in the series listed under Homo sapiens [19]) was over 20 each time. In addition, at Cytochrome P450 1A1 [1], the “inhibition (INH)” value is listed as “Not Active”.

The values are drawn from ChEMBL document CHEMBL4052762, “Synthesis and biological evaluation of pyrrole-based chalcones as CYP1 enzyme inhibitors, for possible prevention of cancer and overcoming cisplatin resistance” (Bioorg Med Chem Lett, 2017).
